Measurements from ChEMBL document CHEMBL1201862, “PubChem BioAssay data set” (2004).
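Tested at 5 concentrations; 48 h exposure; 96-well plates; endpoints linearly interpolated, else capped at highest concentration. GI50: concentration for 50% inhibition of growth.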 Activity calls are given as the source filed them. Cut-off read from the data, not from the text of the source: active = GI50 up to about 1.1 µM and inactive = higher.

Assays:
Assay in all cases: NCI tumour cell line growth inhibition, 48 h
[1] = system: CCRF-CEM
[2] = system: HOP-92
[3] = system: M14
[4] = system: Hs-578T
[5] = system: 786-0
[6] = system: SNB-75
[7] = system: COLO 205
[8] = system: UACC-257
[9] = system: OVCAR-3
[10] = system: SK-MEL-28
[11] = system: NCI-H226
[12] = system: LOX IMVI
[13] = system: MCF7
[14] = system: CAKI-1
[15] = system: OVCAR-8
[16] = system: DU-145
[17] = system: MOLT-4
[18] = system: HCC 2998
[19] = system: NCI-H23
[20] = system: HT-29

Compound	GI50 [1]	GI50 [2]	GI50 [3]	GI50 [4]	GI50 [5]	GI50 [6]	GI50 [7]	GI50 [8]	GI50 [9]	GI50 [10]	GI50 [11]	GI50 [12]	GI50 [13]	GI50 [14]	GI50 [15]	GI50 [16]	GI50 [17]	GI50 [18]	GI50 [19]	GI50 [20]
CC1=C(O)C(=O)c2ccccc2C1=O	> 100 µM (inactive)	> 100 µM (inactive)	16.9 µM (inactive)	78.2 µM (inactive)	71.9 µM (inactive)	44.3 µM (inactive)	> 100 µM (inactive)	47.3 µM (inactive)	43.4 µM (inactive)	> 100 µM (inactive)	> 100 µM (inactive)	70.6 µM (inactive)	67.6 µM (inactive)	> 100 µM (inactive)	> 100 µM (inactive)	64.9 µM (inactive)	> 100 µM (inactive)	> 100 µM (inactive)	12.3 µM (inactive)	56.1 µM (inactive)
NCC1CCN(c2nc3ccccc3c3c2CCCC3)CC1	2.87 µM (inactive)	9.04 µM (inactive)	1.92 µM (inactive)	20.1 µM (inactive)	4.23 µM (inactive)	4.21 µM (inactive)	1.61 µM (inactive)	2.68 µM (inactive)	9.75 µM (inactive)	5.15 µM (inactive)	16.7 µM (inactive)	4.81 µM (inactive)	4.86 µM (inactive)	8.61 µM (inactive)	17.2 µM (inactive)	13.1 µM (inactive)	3.59 µM (inactive)	1.9 µM (inactive)	15.5 µM (inactive)	2.42 µM (inactive)
O=C(O)c1ccc2c(O)c(O)ccc2c1	–	32.8 µM (inactive)	23.5 µM (inactive)	27.2 µM (inactive)	18.1 µM (inactive)	10.4 µM (inactive)	26.2 µM (inactive)	21.1 µM (inactive)	18.8 µM (inactive)	> 100 µM (inactive)	18.7 µM (inactive)	5.38 µM (inactive)	7.23 µM (inactive)	21.6 µM (inactive)	20 µM (inactive)	39.8 µM (inactive)	6.75 µM (inactive)	33.3 µM (inactive)	22 µM (inactive)	6.82 µM (inactive)
COC(=O)C1(C)CCCC2(C)c3cc(OC)ccc3C(=O)C(Br)C12 (configuration not stated)	2.29 µM (inactive)	> 10 µM (inactive)	3.35 µM (inactive)	> 10 µM (inactive)	1.84 µM (inactive)	–	2.63 µM (inactive)	> 10 µM (inactive)	5.35 µM (inactive)	> 10 µM (inactive)	> 10 µM (inactive)	> 10 µM (inactive)	1.95 µM (inactive)	4.05 µM (inactive)	1.99 µM (inactive)	> 10 µM (inactive)	1.75 µM (inactive)	> 10 µM (inactive)	> 10 µM (inactive)	4.75 µM (inactive)
COc1cc2nc(-c3ccc4ccccc4c3)nc(O)c2cc1OC	> 100 µM (inactive)	37.5 µM (inactive)	> 100 µM (inactive)	53.2 µM (inactive)	22.9 µM (inactive)	13.8 µM (inactive)	> 100 µM (inactive)	> 100 µM (inactive)	> 100 µM (inactive)	–	> 100 µM (inactive)	> 100 µM (inactive)	> 100 µM (inactive)	> 100 µM (inactive)	43.2 µM (inactive)	> 100 µM (inactive)	> 100 µM (inactive)	> 100 µM (inactive)	49.2 µM (inactive)	> 100 µM (inactive)
O=[N+]([O-])c1ccc(N/N=C/CC(O)(C(F)(F)F)C(F)(F)F)c([N+](=O)[O-])c1	3.99 µM (inactive)	2.17 µM (inactive)	> 10 µM (inactive)	2.74 µM (inactive)	5.04 µM (inactive)	> 10 µM (inactive)	3.67 µM (inactive)	3.65 µM (inactive)	2.8 µM (inactive)	7.78 µM (inactive)	3.72 µM (inactive)	5.55 µM (inactive)	3.78 µM (inactive)	3.15 µM (inactive)	4.23 µM (inactive)	3.1 µM (inactive)	3.78 µM (inactive)	5.32 µM (inactive)	2.77 µM (inactive)	4.38 µM (inactive)
CC(=O)Nc1nc(Cl)cc(NCC2(CO)CCC2)n1	> 100 µM (inactive)	> 100 µM (inactive)	> 100 µM (inactive)	> 100 µM (inactive)	> 100 µM (inactive)	> 100 µM (inactive)	> 100 µM (inactive)	> 100 µM (inactive)	> 100 µM (inactive)	> 100 µM (inactive)	> 100 µM (inactive)	> 100 µM (inactive)	> 100 µM (inactive)	> 100 µM (inactive)	> 100 µM (inactive)	> 100 µM (inactive)	> 100 µM (inactive)	> 100 µM (inactive)	> 100 µM (inactive)	> 100 µM (inactive)
CC1=NNC(=S)NCCCN2CCN(CCCNC(=S)NN=C(C)C=NNC(=S)NCCCN3CCN(CCCNC(=S)NN=C1)CC3)CC2	> 100 µM (inactive)	> 100 µM (inactive)	> 100 µM (inactive)	> 100 µM (inactive)	> 100 µM (inactive)	> 100 µM (inactive)	> 100 µM (inactive)	> 100 µM (inactive)	> 100 µM (inactive)	> 100 µM (inactive)	> 100 µM (inactive)	> 100 µM (inactive)	> 100 µM (inactive)	> 100 µM (inactive)	> 100 µM (inactive)	> 100 µM (inactive)	> 100 µM (inactive)	> 100 µM (inactive)	> 100 µM (inactive)	> 100 µM (inactive)
CCOC(=O)c1cn(CC)c2ccc3ccsc3c2c1=O	> 100 µM (inactive)	> 100 µM (inactive)	> 100 µM (inactive)	> 100 µM (inactive)	> 100 µM (inactive)	69.5 µM (inactive)	> 100 µM (inactive)	> 100 µM (inactive)	> 100 µM (inactive)	> 100 µM (inactive)	> 100 µM (inactive)	> 100 µM (inactive)	> 100 µM (inactive)	> 100 µM (inactive)	> 100 µM (inactive)	> 100 µM (inactive)	> 100 µM (inactive)	> 100 µM (inactive)	> 100 µM (inactive)	> 100 µM (inactive)
C1CSC(Sc2nc(SC3=NCCS3)nc(SC3=NCCS3)n2)=N1	> 100 µM (inactive)	> 100 µM (inactive)	> 100 µM (inactive)	> 100 µM (inactive)	> 100 µM (inactive)	–	> 100 µM (inactive)	> 100 µM (inactive)	> 100 µM (inactive)	> 100 µM (inactive)	> 100 µM (inactive)	> 100 µM (inactive)	> 100 µM (inactive)	> 100 µM (inactive)	> 100 µM (inactive)	> 100 µM (inactive)	> 100 µM (inactive)	> 100 µM (inactive)	> 100 µM (inactive)	> 100 µM (inactive)
COC(=O)Cc1c2n(c3ccccc13)C(=O)N1c3ccccc3C(CC(=O)OC)C21 (configuration not stated)	> 100 µM (inactive)	9.73 µM (inactive)	–	21.1 µM (inactive)	13.1 µM (inactive)	7.45 µM (inactive)	87.3 µM (inactive)	> 100 µM (inactive)	55.7 µM (inactive)	> 100 µM (inactive)	> 100 µM (inactive)	63.5 µM (inactive)	59.3 µM (inactive)	21.1 µM (inactive)	31.8 µM (inactive)	> 100 µM (inactive)	> 100 µM (inactive)	68.1 µM (inactive)	15.7 µM (inactive)	> 100 µM (inactive)
COc1ccc(/C=C2/C(=O)C(c3ccccc3)N(c3ccccc3)C2=O)cc1OC (configuration not stated)	> 10 µM (inactive)	> 10 µM (inactive)	> 10 µM (inactive)	> 10 µM (inactive)	> 10 µM (inactive)	–	> 10 µM (inactive)	> 10 µM (inactive)	> 10 µM (inactive)	> 10 µM (inactive)	> 10 µM (inactive)	> 10 µM (inactive)	> 10 µM (inactive)	> 10 µM (inactive)	> 10 µM (inactive)	> 10 µM (inactive)	> 10 µM (inactive)	> 10 µM (inactive)	> 10 µM (inactive)	> 10 µM (inactive)
O=C(O)CNC(=O)C(CSC(=O)OCC1c2ccccc2-c2ccccc21)NC(=O)CCC(NC(=O)OCC1c2ccccc2-c2ccccc21)C(=O)O (configuration not stated)	20.2 µM (inactive)	21.7 µM (inactive)	> 100 µM (inactive)	68.1 µM (inactive)	3.05 µM (inactive)	–	16.5 µM (inactive)	> 100 µM (inactive)	> 100 µM (inactive)	> 100 µM (inactive)	38.8 µM (inactive)	0.0259 µM (active)	> 100 µM (inactive)	4.57 µM (inactive)	16.4 µM (inactive)	15.3 µM (inactive)	20.1 µM (inactive)	> 100 µM (inactive)	27 µM (inactive)	–
CN(C)c1n2c3cc([N+](=O)[O-])ccc3[n+]3c(N(C)C)n4ccccc4c3c2c2cccc[n+]12.[O-][Cl+3]([O-])([O-])[O-].[O-][Cl+3]([O-])([O-])[O-]	> 100 µM (inactive)	> 100 µM (inactive)	> 100 µM (inactive)	29.9 µM (inactive)	> 100 µM (inactive)	> 100 µM (inactive)	> 100 µM (inactive)	> 100 µM (inactive)	> 100 µM (inactive)	> 100 µM (inactive)	> 100 µM (inactive)	> 100 µM (inactive)	8.57 µM (inactive)	> 100 µM (inactive)	> 100 µM (inactive)	> 100 µM (inactive)	> 100 µM (inactive)	> 100 µM (inactive)	> 100 µM (inactive)	> 100 µM (inactive)
